One assay concerns the target T1, human RAD51 (Homo sapiens, UniProt Q06609).
T1 sequence (Q06609 2-339 limits assumed): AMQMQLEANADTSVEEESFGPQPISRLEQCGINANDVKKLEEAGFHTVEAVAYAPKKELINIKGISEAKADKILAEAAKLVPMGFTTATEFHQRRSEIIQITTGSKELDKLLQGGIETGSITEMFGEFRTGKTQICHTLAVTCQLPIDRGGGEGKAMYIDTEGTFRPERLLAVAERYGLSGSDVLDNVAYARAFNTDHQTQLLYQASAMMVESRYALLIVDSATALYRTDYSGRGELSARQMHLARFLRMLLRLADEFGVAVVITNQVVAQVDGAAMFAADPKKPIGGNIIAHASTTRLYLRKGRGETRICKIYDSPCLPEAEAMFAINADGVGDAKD
Briefly: D-loop assay for RAD51. Conditions: B02 derivatives 50 μM. The format is biochemical.

For a further assay, the target named is T2, human RAD54 (Homo sapiens, UniProt Q92698).
T2 sequence (Q92698 1-747): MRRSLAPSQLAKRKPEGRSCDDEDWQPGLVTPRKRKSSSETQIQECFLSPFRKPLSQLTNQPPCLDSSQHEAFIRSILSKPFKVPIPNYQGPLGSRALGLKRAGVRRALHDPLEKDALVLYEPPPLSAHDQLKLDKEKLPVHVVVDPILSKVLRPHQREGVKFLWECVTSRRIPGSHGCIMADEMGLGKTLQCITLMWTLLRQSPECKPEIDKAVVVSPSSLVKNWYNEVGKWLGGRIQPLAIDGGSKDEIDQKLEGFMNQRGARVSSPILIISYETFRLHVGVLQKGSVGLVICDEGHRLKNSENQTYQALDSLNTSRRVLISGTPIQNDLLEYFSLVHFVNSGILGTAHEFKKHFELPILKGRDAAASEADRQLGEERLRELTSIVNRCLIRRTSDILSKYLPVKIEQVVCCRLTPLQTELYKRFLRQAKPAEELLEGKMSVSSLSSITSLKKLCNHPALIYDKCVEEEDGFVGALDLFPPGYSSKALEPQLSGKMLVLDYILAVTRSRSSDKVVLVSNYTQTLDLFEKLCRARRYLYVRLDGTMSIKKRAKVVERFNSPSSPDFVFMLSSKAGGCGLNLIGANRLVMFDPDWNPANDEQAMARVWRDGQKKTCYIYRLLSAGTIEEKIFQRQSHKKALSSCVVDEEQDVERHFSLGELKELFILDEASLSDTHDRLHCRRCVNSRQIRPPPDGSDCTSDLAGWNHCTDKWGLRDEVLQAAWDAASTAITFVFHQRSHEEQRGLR
Briefly: DNA branch migration assay for RAD54. The format is biochemical. Conditions: concentrations from 0 to 200 μM.

In a further assay the target is RecA (Escherichia coli, UniProt P0A7G6).

Like-named read-outs stand apart in the source and are kept apart here.

One may read the IC50 as the concentration that gives 50% inhibition.

RecA, sequence (P0A7G6 2-353): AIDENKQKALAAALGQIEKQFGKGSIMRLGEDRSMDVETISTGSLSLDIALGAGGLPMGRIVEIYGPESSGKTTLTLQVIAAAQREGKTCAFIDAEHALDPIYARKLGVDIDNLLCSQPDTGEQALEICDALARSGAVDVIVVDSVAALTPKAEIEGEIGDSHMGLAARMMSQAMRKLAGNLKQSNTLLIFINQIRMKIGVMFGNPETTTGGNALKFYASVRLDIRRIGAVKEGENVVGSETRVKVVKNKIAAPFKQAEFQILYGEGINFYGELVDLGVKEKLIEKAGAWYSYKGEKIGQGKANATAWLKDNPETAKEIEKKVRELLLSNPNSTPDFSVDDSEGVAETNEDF

For `O=c1c2ccccc2nc(C=Cc2cccnc2)n1-c1ccccc1` [B02-3d], the “inhibitory effect on DNA strand exchange activity of RAD51 (D-loop assay)” value at human RAD51 was “eliminates the inhibition”.
Take `O=c1c2ccccc2nc(/C=C/c2cccnc2)n1Cc1ccccc1` [B02]: the “inhibition of RAD54 branch migration activity” value at human RAD54 is reported as “did not significantly inhibit”. Also, on RecA (read-out: IC50 for RecA, D-loop assay, RecA 1 μM), the IC50 was greater than 250 µM. Further, the “inhibition of RecA DNA strand exchange” value at RecA (up to 250 μM of compound) is “did not observe any significant inhibition”.
Regarding `Cc1ccc(-n2c(C=Cc3cccnc3)nc3ccccc3c2=O)cc1` [B02-3c], the “inhibitory effect on DNA strand exchange activity of RAD51 (D-loop assay)” value at human RAD51 is given as “eliminates the inhibition”.
On to `Cn1c(C=Cc2cccnc2)nc2ccccc2c1=O` [B02-3e], for which the “inhibitory effect on DNA strand exchange activity of RAD51 (D-loop assay)” value at human RAD51 is on record as “eliminates the inhibition”.
In the case of `CCn1c(C=Cc2cccnc2)nc2ccccc2c1=O` [B02-3a], the “inhibitory effect on DNA strand exchange activity of RAD51 (D-loop assay)” value at human RAD51 was “retain the inhibitory effect”. Moreover, on RecA (concentrations up to 100 μM), the “inhibition of RecA DNA strand exchange” value is “do not inhibit”.
Consider `Cc1cccc(-n2c(/C=C/c3cccnc3)nc3ccccc3c2=O)c1` [B02-3b], for which, on human RAD51, the “inhibitory effect on DNA strand exchange activity of RAD51 (D-loop assay)” value is “retain the inhibitory effect”. Further, the “inhibition of RecA DNA strand exchange” value at RecA (concentrations up to 100 μM) was “do not inhibit”.
